Source: article PMC2394487, “Improved radiotracing of oxytocin receptor-expressing tumours using the new [^111In]-DOTA-Lys^8-deamino-vasotocin analogue” (British Journal of Cancer, 2003)
Entries after “also recorded” stand apart in the source; their conditions may differ. Positions of bridges follow the written chain, without caps; N, C: chain ends. Non-standard residues stand in square brackets, D forms with d. Residues, ends and D or L forms follow the SMILES beside them. *: point of attachment. DOTA = O=C(O)CN1CCN(CC(=O)O)CCN(CC(=O)*)CCN(CC(=O)O)CC1; Mpa = O=C(O)CCS

Legend:
[1] = target: T1, human OTR fused to EGFP (Homo sapiens, UniProt P30559); test: Peptide-induced receptor internalisation, confocal microscopy, HEK293 cells; assay type: cell-based; details: peptide 10^−6 M; for receptor internalisation (result in words): up to 60 min
T1 construct: expressed in transfected cells; host or cells: HEK293, stably transfected
T1 sequence (P30559 1-389): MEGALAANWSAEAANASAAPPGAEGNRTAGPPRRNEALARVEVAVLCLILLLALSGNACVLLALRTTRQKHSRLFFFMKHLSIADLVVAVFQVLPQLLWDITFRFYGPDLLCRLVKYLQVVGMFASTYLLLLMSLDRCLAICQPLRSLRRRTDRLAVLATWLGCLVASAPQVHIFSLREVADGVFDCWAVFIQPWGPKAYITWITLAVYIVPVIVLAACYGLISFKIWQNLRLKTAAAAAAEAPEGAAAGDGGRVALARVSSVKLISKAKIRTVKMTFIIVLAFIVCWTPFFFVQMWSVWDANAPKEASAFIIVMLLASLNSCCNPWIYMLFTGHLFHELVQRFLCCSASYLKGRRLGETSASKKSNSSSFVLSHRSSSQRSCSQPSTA
Description: HEK293 cells stably transfected with the human OTR fused to EGFP were grown in six-well dishes, washed twice in serum-free medium, and left to equilibrate for 30 min at 37°C. Peptides were then added at a final concentration of 10^−6 M. At fixed time intervals (5, 15, 30 and 60 min), the cells were washed twice with 10 mM sodium phosphate buffer, pH 7.4, containing 150 mM NaCl (LS buffer), fixed for 20 min at room temperature with 4% (w v^−1) paraformaldehyde, and mounted on glass slides with 90% (v v^−1) glycerol in PBS. The slides were observed under an MRC1024 BioRad confocal microscope.
To assess whether LVT, dLVT and DOTA-dLVT behave like OT to induce receptor internalisation, we applied them to HEK293 cells stably expressing a human OTR C-terminally tagged with the green fluorescent protein EGFP ([Guzzi et al, 2002]; [Rimoldi et al, 2003]).
Figure 4 Laser-scanning confocal microscopy analysis of peptide-induced receptor internalisation. Receptor internalisation was investigated in HEK293 cells stably transfected with the human OTR bearing the EGFP fused at its C-terminus. The cells were grown on coverslips and incubated in serum-free medium for 30 min (Bas), after which the peptides were added at a final concentration of 10^−6 M and the coverslips were fixed at 1, 5, 15, 30 and 60 min.

[2] = target: T2, human V1a receptor (Homo sapiens, UniProt P37288); test: Competition binding, [3H]-AVP displacement, membranes of transfected COS7 cells; details: for Ki: displacement of [3H]-AVP, mean±s.e. of three experiments
T2 construct: expressed in transfected cells; host or cells: COS7 (monkey kidney), transient electroporation
T2 sequence (P37288 whole entry): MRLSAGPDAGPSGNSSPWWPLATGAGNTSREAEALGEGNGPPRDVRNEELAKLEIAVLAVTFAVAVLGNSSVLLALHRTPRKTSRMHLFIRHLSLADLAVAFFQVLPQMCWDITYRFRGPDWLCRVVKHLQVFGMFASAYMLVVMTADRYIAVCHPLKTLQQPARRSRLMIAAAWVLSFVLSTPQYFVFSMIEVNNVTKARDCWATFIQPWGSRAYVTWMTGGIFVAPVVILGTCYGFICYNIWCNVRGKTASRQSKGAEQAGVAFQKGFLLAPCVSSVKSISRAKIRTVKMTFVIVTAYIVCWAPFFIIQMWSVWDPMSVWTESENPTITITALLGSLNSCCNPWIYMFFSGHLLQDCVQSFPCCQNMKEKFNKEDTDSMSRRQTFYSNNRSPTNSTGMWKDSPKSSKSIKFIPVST
Description: (§1) To determine the LVT, dLVT and DOTA-dLVT affinity constants in comparison with OT, heterologous competition experiments were performed on membranes prepared from monkey kidney COS7 cells transiently transfected by means of electroporation with human OTR, V1a, V2 and V1b cDNAs as previously described ([Chini et al, 1995a]). Briefly, the transfected cells were homogenised with a Dounce glass apparatus, washed twice, and resuspended in binding buffer (50 mM Tris HCl, 5 mM MgCl, pH 7.4). Between 5 and 10 μg of membrane proteins were incubated with a fixed concentration of [^3H]OT (1–2 nM) for 30 min at 30°C in the presence of increasing concentrations of unlabelled peptides. Nonspecific binding was determined in the presence of 1 μM OT. Bound and free radioactivity were separated by filtration over Whatman GF/C filters presoaked in 10 mg ml^−1 BSA. The binding isotherms were analysed using GraphPad Prism.
(§2) Figure 3 Binding of LVT-derived peptides to human OT/AVP receptor subtypes. (A) Comparison of OT and DOTA-dLVT affinity for the human OTR. Competition experiments were performed using membrane preparations of COS7 cells transiently transfected with the wild-type OTR. [^3H]-OT was used at a concentration of 1–2 nM, and nonspecific binding was determined in the presence of […] OT. Data are expressed as the percentage of bound [^3H]-OT in the absence of cold competitor. The curves are representative of three independent assays performed in triplicate. (B) [^111In]-DOTA-dLVT saturation binding assay. The affinity of [^111In]-DOTA-dLVT for the human OTR was measured by incubating increasing amounts of labelled peptide to membrane preparations of COS7 cells transiently transfected with the wild-type OTR. The curve is representative of two independent assays performed in triplicate. (C) Receptor selectivity profile of DOTA-dLVT. Competition experiments were performed using membrane preparations of COS7 cells transiently transfected with the wild-type human OTR, and V1a, V1b and V2 receptors. The membrane preparations of OTR-expressing cells were incubated in the presence of a constant amount of ^3[H]OT (1–2 nM), and nonspecific binding was determined in the presence of 100 μM OT. The membrane preparations of cells expressing V1a, V1b and V2 receptors were incubated in the presence of a constant amount of ^3[H]AVP (2–4 nM), and nonspecific binding was determined in the presence of 100 μM AVP. The data are expressed as percentages of bound [^3H]-ligand in the absence of cold competitor. Each curve is the mean of triplicate determinations of a single representative experiment.

[3] = target: T3, human V1b receptor (Homo sapiens, UniProt P47901); test: as above; details: for Ki: displacement of [3H]-AVP, mean±s.e. of three experiments
T3 construct: expressed in transfected cells; host or cells: COS7 (monkey kidney), transient electroporation
T3 sequence (P47901 1-424): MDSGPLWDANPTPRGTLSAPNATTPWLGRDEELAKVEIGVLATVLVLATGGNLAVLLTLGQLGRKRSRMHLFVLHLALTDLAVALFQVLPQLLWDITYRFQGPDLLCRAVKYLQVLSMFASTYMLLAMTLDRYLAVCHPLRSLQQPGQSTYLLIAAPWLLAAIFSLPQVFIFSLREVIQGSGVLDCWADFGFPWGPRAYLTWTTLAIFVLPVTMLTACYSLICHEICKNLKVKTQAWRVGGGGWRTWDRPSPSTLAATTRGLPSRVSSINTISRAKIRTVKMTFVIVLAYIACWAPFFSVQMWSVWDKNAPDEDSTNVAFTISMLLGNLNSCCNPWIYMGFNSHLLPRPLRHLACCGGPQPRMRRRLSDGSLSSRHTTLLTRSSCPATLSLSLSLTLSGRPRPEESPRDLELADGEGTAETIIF
Description: as §1, §2

[4] = target: T4, human V2 receptor (Homo sapiens, UniProt P30518); test: as above; details: for Ki: displacement of [3H]-AVP, mean±s.e. of three experiments
T4 construct: expressed in transfected cells; host or cells: COS7 (monkey kidney), transient electroporation
T4 sequence (P30518 whole entry): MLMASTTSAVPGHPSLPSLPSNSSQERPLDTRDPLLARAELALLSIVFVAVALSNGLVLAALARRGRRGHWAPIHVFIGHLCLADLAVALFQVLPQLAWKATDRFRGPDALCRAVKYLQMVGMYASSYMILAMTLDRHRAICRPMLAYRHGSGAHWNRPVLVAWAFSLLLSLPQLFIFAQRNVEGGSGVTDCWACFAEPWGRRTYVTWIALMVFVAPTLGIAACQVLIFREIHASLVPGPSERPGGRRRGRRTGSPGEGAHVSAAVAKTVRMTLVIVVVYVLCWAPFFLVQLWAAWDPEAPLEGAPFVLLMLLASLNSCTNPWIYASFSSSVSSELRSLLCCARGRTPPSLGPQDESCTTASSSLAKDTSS
Description: as §1, §2

[5] = target: T5, human OTR (Homo sapiens, UniProt P30559); test: Heterologous competition binding, [3H]-OT displacement, membranes of transfected COS7 cells; details: for Ki: displacement of [3H]-OT, mean±s.e. of three experiments
T5 construct: expressed in transfected cells; host or cells: COS7 (monkey kidney), transient electroporation
T5 sequence (P30559 1-389): T1 sequence (P30559 1-389)
Description: as §1
LVT, dLVT and DOTA-dLVT affinities for the human OTR were determined by means of heterologous competition experiments on membranes prepared from transiently transfected COS7 cells using [^3H]-OT as radioligand.
Figure 3 Binding of LVT-derived peptides to human OT/AVP receptor subtypes. (A) Comparison of OT and DOTA-dLVT affinity for the human OTR. […] [^3H]-OT was used at a concentration of 1–2 nM, and nonspecific binding was determined in the presence of […] OT. Data are expressed as the percentage of bound [^3H]-OT in the absence of cold competitor. […] The affinity of [^111In]-DOTA-dLVT for the human OTR was measured by incubating increasing amounts of labelled peptide to membrane preparations of COS7 cells transiently transfected with the wild-type OTR. […] The membrane preparations of OTR-expressing cells were incubated in the presence of a constant amount of ^3[H]OT (1–2 nM), and nonspecific binding was determined in the presence of 100 μM OT. The membrane preparations of cells expressing V1a, V1b and V2 receptors were incubated in the presence of a constant amount of ^3[H]AVP (2–4 nM), and nonspecific binding was determined in the presence of 100 μM AVP. […]

[6] = system: OTR-positive cells (MCF7, TS/A, MOG-U-V-W); test: Displacement of [111In]-DOTA-dLVT binding from intact tumour cells by cold peptides; assay type: cell-based; details: 5 min preincubation with 100 μM and 1 mM nonradioactive peptide
Description: Binding specificity was determined by evaluating radioactive displacement. Briefly, the cell suspension was incubated for 5 min in the presence of LVT, dLVT or OT 100 μM and 1 mM, or in the presence of unrelated peptides (somatostatin 100 nM and 1 μM, and hexarelin 1 μM) followed by 20 min of incubation with 1 μM [^111In]-DOTA-dLVT. The cells were then centrifuged and washed twice as described above. The activity of the two different agonists and the unrelated peptides in competing with the radioligand was evaluated by measuring cell-bound radioactivity. All of the experiments were performed in triplicate. The statistical analysis was carried out using ANOVA, with a significance cutoff point of 0.05.

Compound	time after application at which punctate fluorescence (endocytotic vesicles) is seen [1]	receptor internalisation (result in words) [1]	lower affinity at V1a receptor relative to human OTR [2]	Ki [2]	lower affinity at V1b receptor relative to human OTR [3]	Ki [3]	decrease in binding affinity at V2 receptor relative to human OTR [4]	Ki [4]	enhancement of affinity for the hOTR by addition of DOTA group at position 8 of dLVT ([5]; compared to dLVT (to both OT and dLVT))	Ki [5]	specific [111In]-DOTA-dLVT binding displaced [6]	concentrations at which V2 receptor binds the peptide ([4]; in words)
CC[C@H](C)[C@@H]1NC(=O)[C@H](Cc2ccc(O)cc2)NC(=O)CCSSC[C@@H](C(=O)N2CCC[C@H]2C(=O)N[C@@H](CCCCNC(=O)CN2CCN(CC(=O)O)CCN(CC(=O)O)CCN(CC(=O)O)CC2)C(=O)NCC(N)=O)NC(=O)[C@H](CC(N)=O)NC(=O)[C@H](CCC(N)=O)NC1=O [DOTA-dLVT] ([Mpa]YIQNCPK(DOTA)G-NH2; disulfide 1-6)	5 min	capable of inducing a persistent internalisation; also recorded: rapid and persistent receptor internalisation	≥ 300 fold	370 ± 58 nM	≥ 300 fold	640 ± 177 nM	≥ 300 fold	3560 ± 280 nM	2–3 fold	1.21 ± 0.199 nM		
oxytocin [OT]											more than 92%	
CC[C@H](C)[C@@H]1NC(=O)[C@H](Cc2ccc(O)cc2)NC(=O)CCSSC[C@@H](C(=O)N2CCC[C@H]2C(=O)N[C@@H](CCCCN)C(=O)NCC(N)=O)NC(=O)[C@H](CC(N)=O)NC(=O)[C@H](CCC(N)=O)NC1=O [dLVT, reference compound] (HELM PEPTIDE1{[O=C(CCS[*:3])[*:2]].Y.I.Q.N.C.P.K.G.[am]}$PEPTIDE1,PEPTIDE1,1:R3-6:R3$$$V2.0)				35.5 ± 6.2 nM		71.7 ± 2 nM		3740 ± 400 nM		3.88 ± 0.585 nM		
CC[C@H](C)[C@@H]1NC(=O)[C@H](Cc2ccc(O)cc2)NC(=O)[C@@H](N)CSSC[C@@H](C(=O)N2CCC[C@H]2C(=O)N[C@@H](CCCCN)C(=O)NCC(N)=O)NC(=O)[C@H](CC(N)=O)NC(=O)[C@H](CCC(N)=O)NC1=O [LVT, [Lys8]-vasotocin, reference compound] (HELM PEPTIDE1{C.Y.I.Q.N.C.P.K.G.[am]}$PEPTIDE1,PEPTIDE1,1:R3-6:R3$$$V2.0; C-terminus assumed; bridges inferred)	5 min	rapid and persistent receptor internalisation	10 fold		10 fold						more than 92%	only at micromolar concentrations
